Measurements: patent US20040033517A1, “Compositions and methods relating to endothelial cell signaling using the protease activated receptor (PAR1)” (priority 2002, published 2004)
Where two headings read alike, the source gives them in different places.

Columns and labels:
[1] = tested on: human umbilical vein endothelial cells HUVEC-C; format: cell-based; settings: endothelial cells
Excerpt: Microarray Analysis. […] Total RNA was isolated followed by reverse transcription. Purified double stranded cDNA was in vitro transcribed in the presence of biotinylated dUTP and dCTP, fragmented cRNA was hybridized to the HG-U95Av2 array (Affymetrix, Santa Clara, Calif.), followed by staining with streptavidin-phycoerythrin. Arrays were scanned and analyzed using GeneChip3.1 software. […] An average fold-induction for the three independent experiments was obtained by calculating the means of the logarithm of the individual fold-increases for each agonist.

[2] = tested on: thrombin-mediated PAR1 signaling; settings: 100 nM hirudin; M. Riewald et al., Blood 97: 3109, 2001; cited from earlier work

Substance: Thrombin
- Induction (log 2), A1743606 wg51108.x1 Homo sapiens cDNA [1]: −0.05 log 2
- Induction (log 2), AB002450 Homo sapiens mRNA from chromosome 5q21-22, clone-A3-A [1]: 0.45 log 2
- Induction (log 2), AB003184 Homo sapiens mRNA for ISLR [1]: 0.05 log 2
- Induction (log 2), AB012229 fructose-6-phosphate,2-kinase/fructose-2,6-bisphosphatase [1]: 0.25 log 2
- Induction (log 2), AF000421 TTF-1 interacting peptide 12 mRNA [1]: 0.20 log 2
- Induction (log 2), AF015451 Homo sapiens Usurpin-beta mRNA [1]: 0.45 log 2
- Induction (log 2), AF022375 Homo sapiens vascular endothelial growth factor mRNA [1]: 0.75 log 2
- Induction (log 2), AF024710 Homo sapiens vascular endothelial growth factor (VEGF) mRNA [1]: 0.90 log 2
- Induction (log 2), AF042083 BH3 interacting domain death agonist (BID) mRNA [1]: 0.20 log 2
- Induction (log 2), AF094481 trinucleotide repeat DNA binding protein p20-CGGBP (CGGBP) gene [1]: 0.50 log 2
- Induction (log 2), AF095154 Homo sapiens C1q-related factor mRNA [1]: 0.10 log 2
- Induction (log 2), AF098462 Homo sapiens stanniocalcin-related protein mRNA [1]: 1.00 log 2
- Induction (log 2), AJ000480 Homo sapiens mRNA for C8FW phosphoprotein [1]: 1.15 log 2
- Induction (log 2), Cluster Incl U88629 Human RNA polymerase II elongation factor ELL2 [1]: 0.70 log 2
- Induction (log 2), Cluster Incl X66360 H.sapiens mRNA PCTAIRE-2 for serine/threonine protein kinase [1]: 0.35 log 2
- Induction (log 2), D29990 Human mRNA for cationic amino acid transporter 2 [1]: 0.75 log 2
- Induction (log 2), D38449 Human mRNA for G protein-coupled receptor [1]: 0.10 log 2
- Induction (log 2), D49817 6-phosphofructo-2-kinase/fructose-2, 6-bisphosphatase mRNA [1]: 0.20 log 2
- Induction (log 2), D78579 Homo sapiens mRNA for neuron derived orphan receptor [1]: 1.55 log 2
- Induction (log 2), J04102 Human erythroblastosis virus oncogene homolog 2 (ets-2) mRNA [1]: 0.50 log 2
- Induction (log 2), L07261 Human alpha adducin mRNA [1]: 0.10 log 2
- Induction (log 2), L19871 Human activating transcription factor 3 (ATF3) mRNA [1]: 1.10 log 2
- Induction (log 2), L38487 Human estrogen receptor-related protein (hERRa1) mRNA [1]: 0.10 log 2
- Induction (log 2), M14648 Human cell adhesion protein (vitronectin) receptor alpha subunit mRNA [1]: 0.60 log 2
- Induction (log 2), M19481 Human follistatin gene [1]: 1.30 log 2
- Induction (log 2), M22489 Human bone morphogenetic protein 2A (BMP-2A) mRNA [1]: 0.90 log 2
- Induction (log 2), M28130 Human interleukin 8 (IL8) gene [1]: 0.40 log 2
- Induction (log 2), M29039 Human transactivator (jun-B) gene [1]: 0.60 log 2
- Induction (log 2), M36820 Human cytokine (GRO-beta) mRNA [1]: 0.35 log 2
- Induction (log 2), M59964 Human stem cell factor mRNA [1]: 0.75 log 2
- Induction (log 2), M64349 Human cyclin D (cyclin D1) mRNA [1]: 0.00 log 2
- Induction (log 2), M96995 epidermal growth factor receptor-binding protein GRB2 (EGFRBP-GRB2) mRNA [1]: 0.05 log 2
- Induction (log 2), Neurofibromatosis 2 Tumor Suppressor [1]: 0.55 log 2
- Induction (log 2), Tyrosine Phosphatase, Epsilon [1]: 1.40 log 2
- Induction (log 2), U08015 HumanNF-ATc mRNA [1]: 0.55 log 2
- Induction (log 2), U12471 Human thrombospondin-1 gene [1]: 0.70 log 2
- Induction (log 2), U12767 Human mitogen induced nuclear orphan receptor (MINOR) mRNA [1]: 1.15 log 2
- Induction (log 2), U15932 Human dual-specificity protein phosphatase mRNA [1]: 0.60 log 2
- Induction (log 2), U18671 Human Stat2 gene [1]: 0.05 log 2
- Induction (log 2), U20816 Human nuclear factor kappa-B2 (NF-KB2) gene [1]: 0.70 log 2
- Induction (log 2), U23070 Human putative transmembrane protein (nma) mRNA [1]: 1.10 log 2
- Induction (log 2), U25997 Homo sapiens stanniocalcin precursor (STC) mRNA [1]: 1.10 log 2
- Induction (log 2), U33838 Human NF-kappa-B p65delta3 mRNA [1]: 0.10 log 2
- Induction (log 2), U42391 Human myosin-IXb mRNA [1]: −0.15 log 2
- Induction (log 2), U65093 Human msg1-related gene 1 (mrg1) mRNA [1]: 0.95 log 2
- Induction (log 2), U72066 Homo sapiens CtBP interacting protein CtIP (CtIP) mRNA [1]: 0.70 log 2
- Induction (log 2), U76368 Human cationic amino acid transporter-2A (ATRC2) mRNA [1]: 0.75 log 2
- Induction (log 2), U83981 Homo sapiens apoptosis associated protein (GADD34) mRNA [1]: 0.50 log 2
- Induction (log 2), U88629/FEATURE Human RNA polymerase II elongation factor ELL2 [1]: 0.75 log 2
- Induction (log 2), W28170 43a12 Homo sapiens cDNA [1]: 0.15 log 2
- Induction (log 2), W28257 44c1 Homo sapiens cDNA [1]: 0.20 log 2
- Induction (log 2), X02469 Human mRNA for p53 cellular tumor antigen [1]: −0.10 log 2
- Induction (log 2), X14787 Human mRNA for thrombospondin [1]: 0.40 log 2
- Induction (log 2), X14798 Human DNA for c-ets-1 proto-oncogene [1]: 0.75 log 2
- Induction (log 2), X16706 Human fra-2 mRNA [1]: 0.50 log 2
- Induction (log 2), X51345 Human jun-B mRNA for JUN-B protein [1]: 0.75 log 2
- Induction (log 2), X51435 Human PRDII-BF1 gene for a DNA-binding protein [1]: 0.85 log 2
- Induction (log 2), X66360/FEATURE H.sapiens mRNA PCTAIRE-2 for serine/threonine protein kinase [1]: 0.65 log 2
- Induction (log 2), X68277 H.sapiens CL 100 mRNA for protein tyrosine phosphatase [1]: 1.75 log 2
- Induction (log 2), X69086 H.sapiens mRNA for utrophin [1]: 0.60 log 2
- Induction (log 2), X69699 H.sapiens Pax8 mRNA [1]: 0.10 log 2
- Induction (log 2), X98248 H.sapiens mRNA for sortilin [1]: −0.15 log 2
- Induction (log 2), Z12173 H.sapiens GNS mRNA encoding glucosamine-6-sulphatase [1]: 0.60 log 2
- Induction (log 2), Z12830 H.sapiens mRNA for SSR alpha subunit [1]: 0.40 log 2
- Induction (log 2), Z23115 H.sapiens bc1-xL mRNA [1]: 0.10 log 2
- Induction (log 2), Z29083 H.sapiens 5T4 gene for 5T4 Oncofetal antigen [1]: 0.10 log 2
- Induction (log 2), Z48579 H.sapiens mRNA for disintegrin-metalloprotease (partial) [1]: 0.20 log 2
- Induction (log 2), D13540 Homo sapiens SH-PTP3 mRNA for protein-tyrosine phosphatase ([1]; first entry (r8)): 0.65 log 2
- Induction (log 2), W28616 49b9 Homo sapiens cDNA ([1]; first entry (r15)): 0.30 log 2
- Induction (log 2), W28616 49b9 Homo sapiens cDNA ([1]; second entry (r30)): −0.05 log 2
- Induction (log 2), D13540 Homo sapiens SH-PTP3 mRNA for protein-tyrosine phosphatase ([1]; second entry (r54)): 0.40 log 2

Substance: hirudin
- Block of cell surface thrombin-mediated PAR1 signaling [2]: block all cell surface thrombin-mediated PAR1 signaling
